Data taken from patent publication US20200360331A1, “COMPOSITIONS COMPRISING 15-HEPE AND/OR 15-HETrE AND METHODS OF TREATING OR PREVENTING CARDIOMETABOLIC DISEASE, METABOLIC SYNDROME, AND/OR RELATED DISEASES” (Afimmune Limited, priority 2019, published 2020).
Entries after “also recorded” stand apart in the source; their conditions may differ.

How the values were obtained:
UUO mice [1] = test: UUO study: kidney hydroxyproline content; type: in vivo, C57BL/6 mice
Method: (§1) UUO Surgery: On day 0 of the study, UUO surgery was performed on mice under pentobarbital sodium anesthesia. The mouse's hair was first shaved and then abdomen cut open to exteriorize the mouse's left ureter. The ureter was ligated 4-0 nylon sutures at two points. The mouse's peritoneum and skin were then closed with sutures, and the mouse transferred to a clean cage until recovered from the anesthesia. Sham operated mice had their left ureter exposed but not ligated.
Measurement of Kidney Biochemistry: To quantify kidney hydroxyproline content, frozen left kidney samples were processed by an alkaline-acid hydrolysis method as follows: kidney samples were dissolved in 2 normal (N) sodium hydroxide (NaOH) at 65° C. and autoclaved at 121° C. for 20 minutes. The lysed samples (400 μL) were acid-hydrolyzed with 400 μL of 6N hydrochloride acid (HCl) at 121° C. for 20 minutes, and neutralized with 400 μL of 4N NaOH containing 10 mg/mL of activated carbon. An AC buffer (e.g., 2.2M acetic acid/0.48M citric acid, 400 μL) was added to the samples, followed by centrifugation to collect the supernatant. A standard curve of hydroxyproline was constructed with serial dilutions of trans-4-hydroxy-L-proline (Sigma-Aldrich, USA) starting at 16 μg/mL. The prepared samples and standards (e.g., each 400 μL) were mixed with 400 μL chloramine T solution (Wako Pure Chemical Industries, Japan) and incubated for 25 minutes at room temperature. The samples were then mixed with Ehrlich's solution (e.g., 400 μL) and heated at 65° C. for 20 minutes to develop the color. After samples were cooled on ice and centrifuged to remove precipitates, the optical density of each supernatant was measured at 560 nanometers (nm). The concentrations of hydroxyproline were calculated from the hydroxyproline standard curve. Protein concentrations of kidney samples were determined using a bicinchoninic (BCA) protein assay kit (Thermo Fisher Scientific, USA) and used to normalize the calculated hydroxyproline values. Kidney hydroxyproline contents were expressed as microgram (μg) per mg protein.

UUO mice [2] = test: UUO study: Sirius red staining of kidney sections, fibrosis area; type: in vivo, C57BL/6 mice; conditions: for Sirius red-positive area: kidney
Method: as §1
Histopathological analysis: To visualize collagen deposition, kidney sections were stained using picro-Sirius red solution (Waldeck, Germany). For quantification of interstitial fibrosis area, bright field images in the corticomedullary region were captured using a digital camera (e.g., DFC295; Leica Microsystems, Germany) at 200-fold magnification, and the positive areas in 5 fields/section were measured using ImageJ software (National Institute of Health, USA).

[3] = UUO study: body weight, kidney weight, general condition; type: in vivo; conditions: UUO mice
Method: as §1, with “ligated. […]” for “ligated.”
Animals: Seven-week-old female C57BL/6 mice (i.e., animals) were obtained from Japan SLC, Inc. (Japan) and were housed and fed with a normal diet (CE-2; CLEA Japan, Japan) under controlled conditions. The animals were maintained in a specific-pathogen free (SPF) facility under controlled conditions of temperature (e.g., 23±2° C.), humidity (e.g., 45±10%), lighting (e.g., 12-hour artificial light and dark cycles; light from 8:00 to 20:00) and air exchange. A high pressure was maintained in the experimental room to prevent contamination of the facility. The animals were housed in TPX cages (CLEA Japan) with a maximum of 4 mice per cage. Sterilized Paper-Clean (Japan SLC) was used for bedding and replaced once a week. Sterilized solid normal diet was provided ad libitum, being placed in a metal lid on the top of the cage. Pure water was also provided ad libitum from a water bottle equipped with a rubber stopper and a sipper tube. Water bottles were replaced once a week, cleaned, and sterilized in an autoclave and reused. Mice were identified by ear punch and each cage was labeled with a specific identification code.
Animal Monitoring and Sacrifice: The viability, clinical signs and behavior for the mice were monitored daily. Individual body weight was measured daily before treatment during the treatment period. […] The animals were sacrificed by exsanguination through direct cardiac puncture under isoflurane anesthesia (Pfizer Inc.) at Day 14.

[4] = tested on: TGF-β-stimulated intracellular signaling (SMAD2/3 phosphorylation); test: TGF-β-stimulated SMAD2/3 phosphorylation in LX2 liver stellate cells; type: cell-based, human; conditions: 0 μM to 100 μM for 24 hours, then 30 min TGF-β stimulation
[5] = tested on: TGF-β induced epithelial mesenchymal transition (EMT) protein production; test: TGF-β induced EMT protein production in HepG2 cells; type: cell-based, human; conditions: increasing doses for 1 hour, then 200 pM TGF-β for 48 hours
Method: The effects of 15-HEPE on TGF-β-induced signaling and cellular responses were determined. To test the effect of 15-HEPE on TGF-β-induced signaling, the activities of 15-HEPE to regulate TGF-β-stimulated Smad2 phosphorylation and nuclear translocation, both of which are key signaling events leading to TGF-β-induced cellular responses, were tested. One important biological activity of TGF-β is transcriptional activation of genes responsible for epithelial-mesenchymal transition (EMT), which is a crucial event in wound healing, tissue fibrosis, and cancer progression. The effect of 15-HEPE on TGFβ-induced epithelial mesenchymal transition related proteins (such as fibronectin, PAI-1, and N-cadherin etc.) expression in HepG2 and […] cells were assessed. HepG2 cells (human hepatoma cell line) were treated in increasing doses of 15-HEPE stage II in DMEM containing 0.1% of FBS for 1 hour and continually stimulated with or without 200 picomolar (pM) of TGF-β for 48 hours.
HepG2 cells (human hepatoma cell line) were treated in increasing doses of 15-HEPE stage II in DMEM containing 0.1% of FBS for 1 hour and continually stimulated with or without 200 picomolar (pM) of TGF-β for 48 hours. The two panels shown in FIG. 18A are two separate experiments run under the same experimental conditions.

[6] = tested on: TβR-II (type II TGF-β receptor); test: Sucrose density gradient analysis in Mv1Lu cells, TβR-II; type: cell-based, mink; conditions: summary, free acid or ethyl ester form
Method: Sucrose gradient ultracentrifugation and confocal microscopy were used to identify 15-HEPE induced microdomain translocation of TGF-β receptors by sucrose. Sucrose density gradient analysis of TGF-β receptors was conducted in the plasma membranes of Mv1Lu cells (mink lung epithelial cell) treated with 100 μM of 15-HEPE and an equal volume of DMSO (dimethyl sulfoxide) at 37° C. for 0, 1, 4, and 24 hours, and the cell lysates from these treated cells were subjected to sucrose density gradient ultracentrifugation. The sucrose gradient fractions were then analyzed by Western blot analysis using anti-TβR-I (type I TGF-β receptor), anti-TβR-II (type II TGF-β receptor), anti-TβR-III (type III TGF-β receptor, betaglycan), anti-EGFR (epidermal growth factor receptor), and anti-caveolin-1 antibodies. The lipid raft/caveolae, and non-lipid raft microdomain localization of TβR-I, TβR-II, TβR-III, EGFR and caveolin-1 in the plasma membrane of untreated cells or cells treated with 15-HEPE were assessed to determine the effects of 15-HEPE on the membrane microdomain localization of the TGF-β receptors.
A 15-HEPE sucrose density gradient analysis of TGF-β receptors was conducted in the plasma membranes of mink lung epithelial cell (Mv1 Lu) cells treated with 100 μM of 15-HEPE and an equal volume of dimethyl sulfoxide (DMSO) at 37° C. for 0, 1, 4, and 24 hours, and the cell lysates from these treated cells were subjected to sucrose density gradient ultracentrifugation. The sucrose gradient fractions were then analyzed by Western blot analysis using anti-TβR-I (type I TGF-β receptor—FIG. 18C), anti-TβR-II (type II TGF-β receptor—FIG. 18D), anti-TβR-III (type III TGF-β receptor, betaglycan—FIG. 18E), anti-EGFR (epidermal growth factor receptor—FIG. 18F), and anti-caveolin-1 antibodies (FIG. 18G). Fractions 4 to 5 contained lipid rafts/caveolae whereas fractions 7-10 were non-lipid raft fractions. […] Stars (★) indicate 15-HEPE increased abundance of TβR-I (24 hours) in the fraction in comparison with that of the control and shorter treatment durations (FIG. 18C). […] The triangles (▾) indicate translocation and decreased abundance of TβR-II in the fraction in comparison with control cells (FIG. 18D).

[7] = 50 mg/kg PO QD Day 0-13, Day 14
[8] = 250 mg/kg PO QD Day 0-13, Day 14

SMILES	kidney hydroxyproline contents compared with the Vehicle group (UUO mice [1]; 5 mg/kg)	Kidney hydroxyproline (UUO mice [1]; 5 mg/kg PO QD Day 0-13, Day 14) [μg/mg total protein]	kidney hydroxyproline contents compared with the Vehicle group (UUO mice [1]; 50 mg/kg)	Kidney hydroxyproline (UUO mice [1]; [7]) [μg/mg total protein]	kidney hydroxyproline contents compared with the Vehicle group (UUO mice [1]; 250 mg/kg)	Kidney hydroxyproline (UUO mice [1]; [8]) [μg/mg total protein]	fibrosis area compared with the Vehicle group (UUO mice [2]; 5 mg/kg, Mann-Whitney U test (p<0.1))	fibrosis area compared with the Vehicle group (UUO mice [2]; 50 mg/kg, Bonferroni Multiple Comparison)	fibrosis area compared with the Vehicle group (UUO mice [2]; 50 mg/kg, Mann-Whitney U test (p<0.1))	fibrosis area compared with the Vehicle group (UUO mice [2]; 250 mg/kg, Mann-Whitney U test (p<0.1))	Sirius red-positive area (UUO mice [2]; 5 mg/kg PO QD Day 0-13, Day 14) [%]	Sirius red-positive area (UUO mice [2]; [7]) [%]	Sirius red-positive area (UUO mice [2]; [8]) [%]	Body Weight ([3]; 5 mg/kg PO QD Day 0-13, Day 14) [g]	Body Weight [3, 7] [g]	Body Weight [3, 8] [g]	TGF-β-stimulated intracellular signaling (SMAD2/3 phosphorylation) [4]	TGF-β induced EMT (pro-fibrotic) protein production [5]	translocation and degradation of type II TGF-β receptors [6]
CCCCCC(O)/C=C/C=C\C/C=C\CCCCCCC(=O)O (stereo not shown) [DS109, 15-hydroxy-eicosa-8Z,11Z,13E-trienoic acid]	significant decreases	9.94 ± 2.02	no significant difference	13.94 ± 6.44	significant decreases	8.30 ± 1.04	tended to decrease; also recorded: reduction trend	tended to decrease	tended to decrease; also recorded: reduction trend	tended to decrease; also recorded: reduction trend	4.23 ± 1.90	3.58 ± 1.04	4.71 ± 0.96	19.1 ± 0.9	18.6 ± 0.6	18.6 ± 0.7			
CCC=CCC(O)C=CC=CCC=CCC=CCCCC(=O)OCC (stereo not shown) [15-HEPE EE]																	inhibited TGF-β induced intracellular signaling (SMAD2/3)	blocked TGF-β induced pro-fibrotic protein production	induced translocation and degradation of type II TGF-β receptors
